Where two headings read alike, the source gives them in different places.
Target: T1, P2X7 receptor (Homo sapiens, UniProt Q99572)
T1 construct: host or cells: THP-1 cells differentiated with LPS and IFN-γ
T1 sequence (Q99572 1-595): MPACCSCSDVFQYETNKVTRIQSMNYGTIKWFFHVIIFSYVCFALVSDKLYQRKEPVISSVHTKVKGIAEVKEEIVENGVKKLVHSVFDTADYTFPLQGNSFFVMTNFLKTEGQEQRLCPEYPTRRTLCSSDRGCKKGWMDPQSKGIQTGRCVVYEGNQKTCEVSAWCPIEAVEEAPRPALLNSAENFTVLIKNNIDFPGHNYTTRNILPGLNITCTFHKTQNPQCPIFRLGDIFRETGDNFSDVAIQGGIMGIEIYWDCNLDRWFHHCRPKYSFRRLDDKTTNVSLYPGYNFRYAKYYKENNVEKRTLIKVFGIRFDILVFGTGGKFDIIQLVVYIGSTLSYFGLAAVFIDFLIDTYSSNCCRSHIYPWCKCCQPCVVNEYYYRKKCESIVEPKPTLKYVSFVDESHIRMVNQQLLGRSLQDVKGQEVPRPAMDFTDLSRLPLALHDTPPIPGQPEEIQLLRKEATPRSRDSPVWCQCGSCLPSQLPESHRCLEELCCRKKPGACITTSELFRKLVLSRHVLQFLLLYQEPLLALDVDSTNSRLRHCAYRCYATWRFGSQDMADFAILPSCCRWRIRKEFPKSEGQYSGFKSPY
Test: Alternate method for IL-1β release assay (differentiated THP-1 cells, BzATP-stimulated, ELISA)
Type: cell-based
Conditions: P2X7; for inhibition at 0.3 µM: read-out: IL-1β % inhib @ 0.3 μM; for inhibition at 0.1 µM: read-out: IL-1β % inhib @ 0.1 μM
Method in brief: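 After 16 h differentiation with 100 ng/mL LPS and 100 ng/mL IFN-γ plus a further 2 h LPS priming, THP-1 cells were pretreated 30 min with compound, then stimulated with 250 uM BzATP (final) for 45 min. Supernatant IL-1β measured by ELISA; percent inhibition from background-adjusted levels versus untreated cells.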

[1] = 0.3 μM compound (asterisk symbols)
[2] = 0.1 μM compound (symbols + to ++++)
[3] = 0.3 μM compound (symbols * to ****)

| SMILES | inhibition at 0.3 µM [1] | inhibition at 0.3 µM [3] | other results |
| --- | --- | --- | --- |
| O=S(=O)(c1ccc2c(c1)OCCO2)N1CCc2c(ncnc2NCC23CC4CC(CC(C4)C2)C3)C1 [Compound 57] | 50 to 75% | – | – |
| CN(CC(=O)N1CCc2c(ncnc2NCC23CC4CC(CC(C4)C2)C3)C1)Cc1ccccc1 [Compound 260] | – | – | inhibition at 0.1 µM [2]: > 75% |
| COc1ccc(F)c(CN2CCc3c(ncnc3NCC34CC5CC(CC(C5)C3)C4)C2)c1 [Compound 239] | – | 0 to 25% | – |
| O=S(=O)(c1ccccc1C(F)(F)F)N1CCc2c(ncnc2NCC23CC4CC(CC(C4)C2)C3)C1 [Compound 51] | 0 to 25% | – | – |
| Cc1cc(COC(=O)N2CCc3c(ncnc3NCC34CC5CC(CC(C5)C3)C4)C2)no1 [Compound 330] | – | – | inhibition at 0.1 µM [2]: 0 to 25% |
| O=C(OCc1ccc(F)cc1)N1CCc2c(ncnc2NCC23CC4CC(CC(C4)C2)C3)C1 [Compound 327] | – | – | inhibition at 0.1 µM [2]: 50 to 75% |
| O=C(OCc1ccccn1)N1CCc2c(ncnc2NCC23CC4CC(CC(C4)C2)C3)C1 [Compound 342] | – | – | inhibition at 0.1 µM [2]: 0 to 25% |
| c1ccc(C(CN2CCc3c(ncnc3NCC34CC5CC(CC(C5)C3)C4)C2)c2ccccc2)cc1 [Compound 164] | > 75% | – | – |
| CC(CCN1CCc2c(ncnc2NCC23CC4CC(CC(C4)C2)C3)C1)CC(C)(C)C (stereo not shown) [Compound 163] | > 75% | – | – |
| CS(=O)(=O)c1ccc(COC(=O)N2CCc3c(ncnc3NCC34CC5CC(CC(C5)C3)C4)C2)cc1 [Compound 329] | – | – | inhibition at 0.1 µM [2]: 50 to 75% |
| c1nc2c(c(NCC34CC5CC(CC(C5)C3)C4)n1)CCN(CC1CCCC1)C2 [Compound 230] | – | > 75% | – |
| O=C(c1ccccc1)N1CCc2c(ncnc2NCC23CC4CC(CC(C4)C2)C3)C1 [Compound 77, {4-[(Adamantan-1-ylmethyl)-amino]-5,8-dihydro-6H-pyrido[3,4-d]pyrimidin-7-yl}-phenyl-methanone] | – | – | inhibition at 0.1 µM (0.1 μM compound (plus symbols)): > 75% |
| CN(CC(=O)N1CCc2c(ncnc2NCC2C3CC4CC(C3)CC2C4)C1)C1CCCCC1 (stereo not shown) [Compound 269] | – | 50 to 75% | – |
| O=S(=O)(Cc1ccc(Cl)c(Cl)c1)N1CCc2c(ncnc2NCC23CC4CC(CC(C4)C2)C3)C1 [Compound 41] | 0 to 25% | – | – |
| CN(CC(=O)N1CCc2c(ncnc2NCC2C3CC4CC(C3)CC2C4)C1)Cc1ccc(F)cc1 (stereo not shown) [Compound 312] | – | 0 to 25% | – |
| Brc1cccc(CN2CCc3c(ncnc3NCC34CC5CC(CC(C5)C3)C4)C2)c1 [Compound 225] | – | > 75% | – |
| CN(CCc1ccccn1)CC(=O)N1CCc2c(ncnc2NCC2C3CC4CC(C3)CC2C4)C1 (stereo not shown) [Compound 279] | – | 50 to 75% | – |
| N#Cc1ccc(S(=O)(=O)N2CCc3c(ncnc3NCC34CC5CC(CC(C5)C3)C4)C2)c(Cl)c1 [Compound 23] | 0 to 25% | – | – |
| O=S(=O)(c1ccc(Oc2ccccc2)cc1)N1CCc2c(ncnc2NCC23CC4CC(CC(C4)C2)C3)C1 [Compound 47] | – | – | inhibition at 0.1 µM (0.1 μM compound (plus symbols)): 50 to 75% |
| CC(C)(C)OC(=O)N[C@H](Cc1ccccc1)C(=O)N1CCc2c(ncnc2NCC(O)C23CC4CC(CC(C4)C2)C3)C1 (stereo partly drawn) [Compound 711, {(R)-2-[4-(2-Adamantan-1-yl-2-hydroxy-ethylamino)-5,8-dihydro-6H-pyrido[3,4-d]pyrimidin-7-yl]-1-benzyl-2-oxo-ethyl}-carbamic acid tert-butyl ester] | – | – | inhibition at 0.03 µM (at 0.03 μM (asterisk symbols), read-out: IL-1β % inhib @ 0.3 μM or @ 0.03 μM): 0 to 25% |
| O=c1ccc2cc(S(=O)(=O)N3CCc4c(ncnc4NCC45CC6CC(CC(C6)C4)C5)C3)ccc2o1 [Compound 28] | 25 to 50% | – | – |

| SMILES | inhibition at 0.3 µM [1] | inhibition at 0.3 µM [3] | other results |
| --- | --- | --- | --- |
| CN1CCC(NCC(=O)N2CCc3c(ncnc3NCC3C4CC5CC(C4)CC3C5)C2)CC1 (stereo not shown) [Compound 289] | – | 0 to 25% | – |
| COc1ccc(CN(C)CC(=O)N2CCc3c(ncnc3NCC3C4CC5CC(C4)CC3C5)C2)cc1OC (stereo not shown) [Compound 296] | – | 0 to 25% | – |
| N#Cc1cccc(C(=O)N2CCc3c(ncnc3NCC34CC5CC(CC(C5)C3)C4)C2)c1 [Compound 97] | – | – | inhibition at 0.1 µM (0.1 μM compound (plus symbols)): > 75% |
| O=C(c1ccc(F)cc1)N1CCc2c(ncnc2NCC23CC4CC(CC(C4)C2)C3)C1 [Compound 106] | – | – | inhibition at 0.1 µM (0.1 μM compound (plus symbols)): > 75% |
| CCCCN(C)CC(=O)N1CCc2c(ncnc2NCC2C3CC4CC(C3)CC2C4)C1 (stereo not shown) [Compound 288] | – | 50 to 75% | – |
| O=C(CN1CCN(c2ccccc2)CC1)N1CCc2c(ncnc2NCC23CC4CC(CC(C4)C2)C3)C1 [Compound 259] | – | 50 to 75% | – |
| CN(CC(=O)N1CCc2c(ncnc2NCC2C3CC4CC(C3)CC2C4)C1)Cc1cccnc1 (stereo not shown) [Compound 320] | – | 25 to 50% | – |
| FC(F)(F)Oc1cccc(CN2CCc3c(ncnc3NCC34CC5CC(CC(C5)C3)C4)C2)c1 [Compound 243] | – | > 75% | – |
| COCCN(C)CC(=O)N1CCc2c(ncnc2NCC2C3CC4CC(C3)CC2C4)C1 (stereo not shown) [Compound 304] | – | 25 to 50% | – |
| O=C(C(c1ccccc1)c1ccccc1)N1CCc2c(ncnc2NCC23CC4CC(CC(C4)C2)C3)C1 [Compound 92] | 0 to 25% | – | – |
| FC(F)Oc1ccc(CN2CCc3c(ncnc3NCC34CC5CC(CC(C5)C3)C4)C2)cc1 [Compound 232] | – | 0 to 25% | – |
| CC12CC3CC(C)(C1)CC(CNc1ncnc4c1CCN(Cc1ccccc1)C4)(C3)C2 [Compound 2] | 0 to 25% | – | – |
| CC(C)N1CCN(CC(=O)N2CCc3c(ncnc3NCC3C4CC5CC(C4)CC3C5)C2)CC1 (stereo not shown) [Compound 285] | – | 0 to 25% | – |
| O=C(SCc1c(F)cccc1Cl)N1CCc2c(ncnc2NCC23CC4CC(CC(C4)C2)C3)C1 [Compound 344] | – | – | inhibition at 0.1 µM [2]: 25 to 50% |
| O=C(c1cccnc1)N1CCc2c(ncnc2NCC23CC4CC(CC(C4)C2)C3)C1 [Compound 257, 4-[(Adamantan-1-ylmethyl)-amino]-5,8-dihydro-6H-pyrido[3,4-d]pyrimidin-7-yl-pyridin-3-yl-methanone] | – | – | inhibition at 0.1 µM [2]: > 75% |
| O=S(=O)(Cc1cc(Cl)cc(Cl)c1)N1CCc2c(ncnc2NCC23CC4CC(CC(C4)C2)C3)C1 [Compound 42] | 25 to 50% | – | – |
| CN(CC(=O)N1CCc2c(ncnc2NCC2C3CC4CC(C3)CC2C4)C1)Cc1ccncc1 (stereo not shown) [Compound 319] | – | 25 to 50% | – |
| Clc1ccc(CN2CCc3c(ncnc3NCC34CC5CC(CC(C5)C3)C4)C2)cn1 [Compound 245] | – | > 75% | – |
| O=C(CN1CCC(N2CCOCC2)CC1)N1CCc2c(ncnc2NCC2C3CC4CC(C3)CC2C4)C1 (stereo not shown) [Compound 299] | – | 25 to 50% | – |
| O=C(OCCSCc1ccccc1)N1CCc2c(ncnc2NCC23CC4CC(CC(C4)C2)C3)C1 [Compound 334] | – | – | inhibition at 0.1 µM [2]: 25 to 50% |

More lines, main results first:

| inhibition at 0.3 µM [1] | inhibition at 0.3 µM [3] | SMILES | other results |
| --- | --- | --- | --- |
| 0 to 25% | – | Cc1cc(C(=O)N2CCc3c(ncnc3NCC34CC5CC(CC(C5)C3)C4)C2)nn1C [Compound 139] | – |
| > 75% | – | O=C(c1ccc(Cl)cc1Cl)N1CCc2c(ncnc2NCC23CC4CC(CC(C4)C2)C3)C1 [Compound 113] | – |
| > 75% | – | CC(C)(C)c1ccc(C(=O)N2CCc3c(ncnc3NCC34CC5CC(CC(C5)C3)C4)C2)cc1 [Compound 152] | – |
| 0 to 25% | – | O=C(c1ccccc1Cl)N1CCc2c(ncnc2NCC23CC4CC(CC(C4)C2)C3)C1 [Compound 147] | – |
| 50 to 75% | – | Cc1ccc(C(=O)N2CCc3c(ncnc3NCC34CC5CC(CC(C5)C3)C4)C2)cc1 [Compound 144] | – |
| > 75% | – | Cc1cccc(C(=O)N2CCc3c(ncnc3NCC34CC5CC(CC(C5)C3)C4)C2)c1 [Compound 86] | – |
| 50 to 75% | – | O=C(Cc1ccccc1)N1CCc2c(ncnc2NCC23CC4CC(CC(C4)C2)C3)C1 [Compound 81] | – |
| > 75% | – | O=C(CCc1ccccc1)N1CCc2c(ncnc2NCC23CC4CC(CC(C4)C2)C3)C1 [Compound 103] | – |

— patent US20100022531A1, “NOVEL COMPOUNDS AS P2X7 MODULATORS AND USES THEREOF” (RENOVIS, INC., priority 2005, published 2010)
